One assay deals with 4T1 cells. Kind of assay: Matrigel invasion assay. The class given is cell-based. Particulars: TGF-β1 2 ng/mL, 20 h. The protocol:
The upper surface of Transwells (6.5 mm diameter, 8 μm pore size; […] After incubation for 20 h at 37° C. in 5% CO2, the cells remaining on the upper surface of the membrane were removed with a cotton swab, and DAPI-stained cells remaining on the bottom surface were observed using fluorescence microscopy. Average cell number per view field was obtained from 5 random fields.

The test system of the next assay is MCF10A cells. Put plainly: Wound healing assay. The class given is cell-based. The following applies: TGF-β1 2 ng/mL, 1 μM, 16 h. The protocol: MCF10A cells were seeded at 2×10^5 cells/well in 6-well plate. When each well was occupied by cells over 80% of the area, 10% FBS was changed to 0.2% FBS. […] Wound area change from 0 to 16 h was calculated based on Image J program (National Institutes of Health, MD, USA) based on phase-contrast images of cells taken by microscope.

With `Cc1cccc(-c2[nH]c(CNc3ccccc3F)nc2-c2ccc3ncnn3c2)n1` [Example 2, N-((4-([1,2,4]triazolo[1,5-a]pyridin-6-yl)-5-(6-methylpyridin-2-yl)-1H-imidazol-2-yl)methyl)-2-fluoroaniline], the TGF-β1-induced cell invasion entry with 4T1 cells is on record as “suppressed”. Moreover, the TGF-β1-induced cell migration entry in the assay with MCF10A cells is recorded as “suppressed”.

The values above are taken from patent USRE47141E1, “Methods of treating fibrosis, cancer and vascular injuries” (EWHA University—Industry Collaboration Foundation, priority 2010, dated 2018).
